This note sets out measurements from US20250221979A1, “NOVEL HETEROCYCLIC COMPOUND” (SHOUYAO HOLDINGS (BEIJING) CO., LTD., priority 2022, published 2025).

For this assay, the target named is human MAT2A enzyme (Homo sapiens (Human), UniProt P31153). Kind of assay: In vitro enzymatic inhibition activity assay on MAT2A (PiColorLock phosphate detection). Format: biochemical. Conditions: purified human MAT2A 10 nM, ATP 50 μM, L-methionine 100 μM, 6 h at 23° C.; read-out: MAT2A inhibitory activity IC50. The method, then: Enzymatic activity assays of compounds of this patent against MAT2A (to detect half inhibitory concentration IC50 values of the compounds) were performed using the phosphate detection kit PiColorLockTM (ab270004, purchased from Abcam). This method utilized the principle that purified human MAT2A enzyme catalyzes the formation of S-adenosylmethionine (SAM) from L-methionine and ATP to release free phosphate, and used the spectrophotometric method to quantify phosphate, so as to determine the enzymatic activity of MAT2A. Compounds were diluted in a 10-fold gradient starting at 1 mM with 100% DMSO (for a total of 8 concentrations) and 2 μL of each concentration was added to 48 μL of reaction buffer (50 mM Tris-HCl PH 7.5, 50 mM KCl, 10 mM MgCl2, 0.01% Brij-35, 0.01% BSA, 1 mM DTT) and mixed well. The final diluted compound was prepared, and 5 μL of MAT2A enzyme (final concentration of 10 nM), 5 μL of ATP (final concentration of 50 μM), and 5 μL of L-methionine (final concentration of 100 μM) were added to each well of a 384-well plate (#3701, purchased from CORNING). After the 384-well plate was placed in the incubator at 23° C. for 6 h, 5 μL of PiColorLock reagent diluted Accelerator (dilution ratio 1:100) was added to each well, and the reaction was stopped by incubating in the incubator at 23° C. for 5 min. 2 μL of Stabiliser was added, the absorbance was read at 630 nm on BMG CLARIOstar, and the IC50 value of the compound was calculated by using GraphPad Prism software.
human MAT2A enzyme, sequence (P31153 whole entry): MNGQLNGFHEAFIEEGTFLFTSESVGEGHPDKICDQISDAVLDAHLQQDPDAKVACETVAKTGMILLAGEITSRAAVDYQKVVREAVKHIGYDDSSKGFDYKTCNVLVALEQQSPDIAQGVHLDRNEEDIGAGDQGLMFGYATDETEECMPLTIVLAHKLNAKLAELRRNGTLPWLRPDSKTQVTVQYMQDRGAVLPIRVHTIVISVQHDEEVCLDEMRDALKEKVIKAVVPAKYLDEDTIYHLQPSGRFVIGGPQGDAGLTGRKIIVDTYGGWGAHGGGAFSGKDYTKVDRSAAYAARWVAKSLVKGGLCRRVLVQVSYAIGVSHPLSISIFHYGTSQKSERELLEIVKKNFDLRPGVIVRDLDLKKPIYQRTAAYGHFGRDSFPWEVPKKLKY
Under the conditions of this experiment, the inhibition of MAT2A by test compounds can be expressed as an IC50 value for the inhibition of the level of phosphate production during the enzymatic reaction.
The term IC50 denotes the point on the concentration scale where inhibition reaches its midpoint. As to `[2H]C([2H])([2H])OC(=O)c1c(N)c2ccc(Br)cc2n(-c2ccc([C@@H](C)O)cc2)c1=O` [Example 351, methyl-d3 (R)-4-amino-7-bromo-1-(4-(1-hydroxyethyl)phenyl)-2-oxo-1,2-dihydroquinolin-3-carboxylate], the IC50 was 1.05 nM. With `COC(=O)c1c(N)c2ccc(I)cc2n(-c2ccccc2C)c1=O` [Example 19, methyl 4-amino-7-iodo-1-(2-methylphenyl)-2-oxo-1,2-dihydroquinoline-3-carboxylate] the figure was 2.34 nM; with `COC(=O)c1c(N)c2ccc(Br)nc2n(-c2cnc(N)cc2C)c1=O` [Example 280, methyl 4-amino-1-(6-amino-4-methylpyridin-3-yl)-7-bromo-2-oxo-1,2-dihydro-1,8-naphthyridine-3-carboxylate], 1.72 nM; with `COC(=O)c1c(N)c2ccc(I)cc2n(-c2ccc(Cl)c3cnccc23)c1=O` [Example 227, methyl 4-amino-1-(8-chloroisoquinolin-5-yl)-7-iodo-2-oxo-1,2-dihydroquinoline-3-carboxylate], 1.96 nM. As to `COC(=O)c1c(N)c2ccc(Cl)cc2n(-c2ccc(N)cc2)c1=O` [Example 322, methyl 4-amino-7-chloro-1-(4-aminophenyl)-2-oxo-1,2-dihydroquinoline-3-carboxylate], the IC50 amounted to 1.84 nM. `COC(=O)c1c(N)c2ccc(OC)cc2n(-c2ccc([C@@H](C)O)cc2)c1=O` [Example 365, methyl (R)-4-amino-1-(4-(1-hydroxyethyl)phenyl)-7-methoxy-2-oxo-1,2-dihydroquinoline-3-carboxylate]: the IC50 worked out at 2.02 nM. With `COC(=O)c1c(N)c2ccc(C(F)(F)F)cc2n(-c2ccc(C(C)O)cc2C)c1=O` (centres unmarked) [Example 269, methyl 4-amino-1-(4-(1-hydroxyethyl)-2-methylphenyl)-2-oxo-7-(trifluoromethyl)-1,2-dihydroquinoline-3-carboxylate], the IC50 worked out at 5.95 nM. As for `COC(=O)c1c(N)c2ccc(Br)nc2n(-c2ccc(Cl)cc2C)c1=O` [Example 287, methyl 4-amino-7-bromo-1-(4-chloro-2-methylphenyl)-2-oxo-1,2-dihydro-1,8-naphthyridine-3-carboxylate], the figure is 1.45 nM. As for `COC(=O)c1c(N)c2ccc(I)cc2n(-c2ccc(C(C)O)cc2)c1=O` (centres unmarked) [Example 298, methyl 4-amino-1-(4-(1-hydroxyethyl)phenyl)-2-oxo-7-iodo-1,2-dihydroquinoline-3-carboxylate], the figure is 0.43 nM; as for `COC(=O)c1c(N)c2ccc(Br)cc2n(-c2cccc3c2COC3)c1=O` [Example 222, methyl 4-amino-7-bromo-1-(1,3-dihydro-2-benzofuran-4-yl)-2-oxo-1,2-dihydroquinoline-3-carboxylate], 8.38 nM. On to `COC(=O)c1c(N)c2ccc(NCC(F)(F)F)nc2n(-c2ccc(C)nc2)c1=O` [Example 382, methyl 4-amino-1-(6-methylpyridin-3-yl)-2-oxo-7-((2,2,2-trifluoroethyl)amino)-1,2-dihydro-1,8-naphthyridine-3-carboxylate], for which the IC50 is 1.88 nM. With `Nc1c(C(=O)OC2CC2)c(=O)n(-c2ccccc2)c2cc(I)ccc12` [Example 50, cyclopropyl 4-amino-7-iodo-2-oxo-1-phenyl-1,2-dihydroquinolin-3-carboxylate] the figure was 4.57 nM; with `COC(=O)c1c(N)c2ccc(OC(C)C)nc2n(-c2ccc(Cl)cc2)c1=O` [Example 388, methyl 4-amino-1-(4-chlorophenyl)-7-isopropoxy-2-oxo-1,2-dihydro-1,8-naphthyridine-3-carboxylate], 1.55 nM; with `COC(=O)c1c(N)c2ccc(C(F)(F)F)cc2n(-c2ccc(N)cc2)c1=O` [Example 273, methyl 4-amino-1-(4-aminophenyl)-2-oxo-7-(trifluoromethyl)-1,2-dihydroquinoline-3-carboxylate], 0.92 nM. With `[2H]CC(O)c1ccc(-n2c(=O)c(C(=O)OC([2H])([2H])[2H])c(N)c3ccc(C(F)(F)F)nc32)cc1` (centres unmarked) [Example 371, methyl-d3 4-amino-1-(4-(1-hydroxyethyl-2-d)phenyl)-2-oxo-7-(trifluoromethyl)-1,2-dihydro-1,8-naphthyridine-3-carboxylate] the figure was 1.45 nM; with `COC(=O)c1c(N)c2ccc(I)cc2n(-c2ccccc2)c1=O` [Example 16, methyl 4-amino-7-iodo-2-oxo-1-phenyl-1,2-dihydroquinoline-3—carboxylate], 1.23 nM. With `COC(=O)c1c(N)c2ccc(Br)nc2n(-c2ccc(C)nc2)c1=O` [Example 258, methyl 4-amino-7-bromo-1-(6-methylpyridin-3-yl)-2-oxo-1,2-dihydro-1,8-naphthyridine-3-carboxylate] the figure was 1.31 nM.

Consider `COC(=O)c1c(N)c2ccc(Br)cc2n(-c2cccc3c(C)nccc23)c1=O` [Example 231, methyl 4-amino-1-(1-methylisoquinolin-5-yl)-7-bromo-2-oxo-1,2-dihydroquinoline-3-carboxylate], for which the half-maximal inhibitory concentration (IC50) is 2.36 nM.

For `COC(=O)c1c(N)c2ccc(C(F)(F)F)cc2n(-c2cccc3ccncc23)c1=O` [Example 192, methyl 4-amino-1-(isoquinolin-8-yl)-2-oxo-7-(trifluoromethyl)-1,2-dihydro quinoline-3-carboxylate], the IC50 turned out to be 6.47 nM. With `COC(=O)c1c(N)c2ccc(C(F)(F)F)nc2n(-c2ccc3ccncc3c2)c1=O` [Example 283, methyl 4-amino-1-(isoquinolin-7-yl)-2-oxo-7-(trifluoromethyl)-1,2-dihydro-1,8-naphthyridine-3-carboxylate] the figure was 0.7 nM; with `COC(=O)c1c(N)c2ccc(I)cc2n(Cc2ccccc2)c1=O` [Example 28, methyl 4-amino-1-benzyl-7-iodo-2-oxo-1,2-dihydroquinoline-3-carboxylate], 3.62 nM.

For `COC(=O)c1c(N)c2ccc(I)cc2n(-c2ccc(OC)cc2)c1=O` [Example 79, methyl 4-amino-7-iodo-1-(4-methoxyphenyl)-2-oxo-1,2-dihydroquinoline-3-carboxylate], the IC50 is 0.61 nM. As for `COC(=O)c1c(N)c2ccc(C(F)(F)F)cc2n(-c2ccccc2Br)c1=O` [Example 93, methyl 4-amino-1-(2-bromophenyl)-2-oxo-7-(trifluoromethyl)-1,2-dihydroquinoline-3-carboxylate], the figure is 7.39 nM; as for `COC(=O)c1c(N)c2ccc(C(F)(F)F)nc2n(-c2ccc(N)cc2C)c1=O` [Example 282, methyl 4-amino-1-(4-amino-2-methylphenyl)-2-oxo-7-(trifluoromethyl)-1,2-dihydro-1,8-naphthyridine-3-carboxylate], 2.2 nM. `COC(=O)c1c(N)c2ccc(C(F)(F)F)cc2n(Cc2ccccc2)c1=O` [Example 29, methyl 4-amino-1-benzyl-2-oxo-7-(trifluoromethyl)-1,2-dihydroquinoline-3-carboxylate]: the half-inhibitory concentration (IC50) came out at 3.79 nM. With `COC(=O)c1c(N)c2ccc(C(F)(F)F)cc2n(-c2cccc3[nH]ccc23)c1=O` [Example 229, methyl 4-amino-1-(1H-indol-4-yl)-2-oxo-7-(trifluoromethyl)-1,2-dihydroquinoline-3-carboxylate] the figure was 4.18 nM.
